Key:
[1] = tested on: rat primary cardiomyocytes; assay: ROS production (DCF-DA) in rat primary cardiomyocytes; format: cell-based
Experimental: Neonatal rat ventricular cardiomyocytes were isolated and cultured in collagen coated culture dishes as described by Shalitin et al., 1996. Growth medium contained DMEM:Ham's F12 (1:1), fetal calf serum (10%) and antibiotics. Treatment was administered to spontaneously beating cardiomyocytes 48 hours after plating.

primary rat astrocytes = conditions: 50 μM, 24 hours
Experimental: Brains were removed from neonatal rats, and the cerebral cortex was dissected and minced. The cells were dissociated by vigorous shaking in DMEM supplemented with 20% FCS, and cells from 3 brains were seeded in 20 mL of the medium. After one week, the serum concentration was reduced to 10%.
Cells were seeded in six-well plates (10^5 cells/well) for 24 hours and were then treated as specified, trypsinized, washed with PBS, double-stained with annexin V-FITC (fluorescein isothiocyanate) and propidium iodide, according to the manufacturer's instructions and subjected to flow cytometry analysis (FACScalibur cytometer, Becton Dickinson).

p21 = p21 Western blot, U-251 cells; format: cell-based, human; conditions: compared with Compound 12 and acyclovir
Experimental: Cell lysates or acid extracted histones were solubilized in a concentrated (×4) loading buffer (62.5 mM Tris-HCl, pH 6.8, 1% SDS, 10% glycerol v/v, 1% dithiothreitol (DTT) and 0.1 mg/ml bromophenol blue). Proteins (10-40 μg) were run on SDS-PAGE, transferred to a nitrocellulose membrane (Schleicher & Schuell, Germany) and probed with the primary antibodies, followed by incubation with a horseradish peroxidase (HRP)-goat anti-rabbit IgG or HRP-rabbit anti-mouse IgG as secondary antibodies. HRP bound to the secondary antibodies was visualized by the enhanced chemiluminescence method using the Western Blotting Luminol reagent (Santa Cruz, Calif., USA). The membrane was exposed for 5 minutes to Chemiluminescence BioMax light film (Kodak, USA) and the intensity of the bands was measured with a VersaDoc instrument with a Quantityl program (Bio-Rad, USA). The fold increase of each specific protein was determined by the ratio of band intensities of treated and untreated cells, normalized to loading control (actin or total histone H3).

U-251 cells [2] = assay: Apoptosis/cell death by annexin V-FITC and propidium iodide FACS, U-251 cells; format: cell-based
[3] = Acute toxicity assay in mice; format: in vivo; conditions: male, mouse, in vivo; single per os dose, ICR mice
Excerpt: (§1) Male ICR mice, 8 weeks old (Harlan, Israel) were acclimated for 10 days before administration of the tested compounds. The animals were monitored for two weeks and weighed three times per week.

ICR mice = assay: Acute toxicity assay in mice; format: in vivo; conditions: 2 weeks
Excerpt: as §1

acetylated histone H4 [4] = assay: In vivo histone H4 acetylation in 4T1 tumors (Western blot); design: species or system mice; conditions: 100 mg/kg each, 4 hours after treatment, vs vehicle
Experimental: (§2) For the determination of in vitro histone acetylation, 2.5-3×10^6 cells, seeded in 100 mm culture dishes, were supplemented with RPMI medium containing 10% heat inactivated FCS and were treated with the drugs the following day. At the specified times post-treatment, the cells were removed with a rubber policeman, centrifuged, washed, lysed with lysis buffer (PBS, Nonidet® NP-40 1%, sodium deoxycholate 0.5%, sodium dodecyl sulfate (SDS) 0.1%, 1 mM phenylmethylsulfonyl fluoride (PMSF), 1 mM sodium orthovanadate, and 1 μM each of leupeptin and pepstatin) and centrifuged at 10,000 g for 10 minutes at 4° C. […] The extract was then lyophilized, and protein concentration was determined with a BCA kit (Pierce, USA). […] The fold increase of acetylated histones was determined by the ratio of band intensities of treated and untreated cells or mice, normalized to loading control (total histone H3).
(§3) Cell lysates or acid extracted histones were solubilized in a concentrated (×4) loading buffer (62.5 mM Tris-HCl, pH 6.8, 1% SDS, 10% glycerol v/v, 1% dithiothreitol (DTT) and 0.1 mg/ml bromophenol blue). […] The membrane was exposed for 5 minutes to Chemiluminescence BioMax light film (Kodak, USA) and the intensity of the bands was measured with a VersaDoc instrument with a Quantityl program (Bio-Rad, USA). […]

HL-60 cells = assay: MTT viability assay, HL-60 leukemic cells; format: cell-based, human
Experimental: Cells (in quadruplicate) at the specified density were suspended in 200 μL medium supplemented with 10% FCS seeded in 96-well plates for 24 hours, then exposed to the drugs for 72 hours. The viability of the cells was determined by Hoechst fluorescent assay as described by Nudelman et al., 2005. Leukemic cell viability after 72 hours of treatment was determined by an MTT (3-(4,5-dimethylthiazol-2-yl)-2,5-diphenyltetrazolium bromide) assay as described by Levovich et al., 2007.
IC50 values were determined by linear regression of the percentage of survival following drug titration.

U-251 cells [5] = assay: Nitric oxide production assay, U-251 cells; format: cell-based, human; conditions: 50 μM (mixture 50 μM + 50 μM), 1 hour treatment
Experimental: U251 cells (5×10^4) were seeded in 24 well plates, and after 24 hours washed and resuspended in PBS. […] Fluorescence was measured with excitation/emission filters of 390/440 nm in a FluoStar fluorimeter. The concentration of nitrate was determined by subtracting the nitrite concentration from the total concentration of nitrite+nitrate.

[6] = tested on: kinases which phosphorylate acyclovir; assay: Acyclovir phosphorylation (viral thymidine kinase activity) in 4T1 cell extracts; format: cell-based, murine; conditions: 4T1 cells, 24 hours, 40 μM
Experimental: The mammalian thymidine kinase (TK) has a narrow specificity and acts only on thymidine. […] The lysates obtained were kept at −70 ° C. until analyzed either spectroscopically or by RT-PCR. […] The ADP is converted to ATP by pyruvate kinase when it hydrolyzes phosphoenolpyruvate (PEP) to pyruvate. Lactate dehydrogenase then converts pyruvate to lactate and NADH to NAD^+. The decrease in fluorescence emitted by NADH (excitation/emission of 320/460 nm) during 10 cycles, each lasting 1 minute, were monitored using a FluoStar fluorometer. The reaction velocity was determined by the slope of the fluorescence vs. time.

U-251 cells [7] = assay: Mitochondrial membrane potential (JC-1 staining), U-251 cells; format: cell-based, human; conditions: 60 μM, 24 hour treatment
acetylated histone H4 [8] = assay: Histone H4 acetylation Western blot, U-251 cells; format: cell-based, human; conditions: 2-4 hours of treatment
Experimental: as §2, §3

U-251 cells [9] = assay: Reactive oxygen species by DCF-DA FACS, U-251 cells; format: cell-based, human; conditions: 2 hour treatment
Experimental: ROS levels were determined by FACS analysis of U-251 cells treated with dichlorodihydrofluorescein diacetate (DCF-DA), which becomes fluorescent when oxidized.

## CCCC(CCC)C(=O)Nc1nc2c(ncn2COCCOC(=O)C(CCC)CCC)c(=O)[nH]1 [Compound 6, N-valproyl-9-(2-valproyloxy)ethoxymethylguanine]
[1]; 4 hours
  production of reactive oxygen radicals (ROS): did not increase production of reactive oxygen radicals
[1]; combined with 2 μM Dox
  effect on ROS production induced by Dox: prevented the formation of ROS
Primary rat astrocytes
  viability of primary culture of astrocytes: did not affect the viability
p21
  expression of p21: induces expression of the cyclin dependent kinase inhibitor p21 more quickly and to a greater extent
U-251 cells [2]; Homo sapiens, U-251 glioblastoma cells, 50 μM, 24 hours (untreated 9%)
  mortality at 50 µM: 29%
U-251 cells [2]; U-251 cells, 24 hours
  percentage of apoptotic cells: increased the percentage of apoptotic cells in a dose dependent manner
[3]
  LD50 at 2 weeks: > 750 mg/kg
ICR mice; single per os dose 150 mg/kg
  Survival (%): 100%
ICR mice; single per os dose 200 mg/kg
  Survival (%): 100%
ICR mice; single per os dose 250 mg/kg
  Survival (%): 91.8%
ICR mice; single per os dose 500 mg/kg
  Survival (%): 100%
ICR mice; single per os dose 750 mg/kg
  Survival (%): 100%
Acetylated histone H4 [4]
  levels of acetylated H4 in tumors: significantly higher levels of acetylated H4
HL-60 cells
  IC50 fold lower than that of VA: over 20 fold
HL-60 cells; acyclovir:VA 1:2
  IC50 fold lower than that of the mixture of VA and acyclovir: over 50 fold
U-251 cells [5]
  NO production: increased NO production in U-251 cells considerably
[6]
  rate of acyclovir phosphorylation (kinase activity): increased the rate of acyclovir phosphorylation in a significant and reproducible manner
U-251 cells [7]
  mitochondrial membrane potential: increased the number of mitochondria with reduced membrane potentials
Acetylated histone H4 [8]
  acetylation of histone H4: induced acetylation of H4
U-251 cells [9]
  level of oxidation in cells (ROS): considerably increased the level of oxidation in cells

From patent publication US9334272B2, “Derivatives of purinic and pyrimidinic antiviral agents and use thereof as potent anticancer agents” (Ramot at Tel-Aviv University Ltd., priority 2007, dated 2016)
